Laboratory results reported in patent US20210214758A1, “METHODS AND TOOLS FOR DETERMINING CLONAL RELATEDNESS AND PREDICTING CLONAL TRAITS” (priority 2018, published 2021).

Test system: Klebsiella isolates
Assay: Antibiotic susceptibility of Klebsiella clinical isolates per 7-SNP clonotype (Lookup Table 1; disk diffusion)
Type: cell-based, Klebsiella spp.
Protocol: In further embodiments, the Lookup Table is Lookup Table 1. The information contained in Lookup Table 1 below was obtained from urine specimens from patients with Klebsiella infections from several clinics within different regions of the United States. CT=clonotypes determined using a 7-SNP combination: phoE54; rpoB130; infB279; mdh315; phoE336; phoE354; and mdh429.
Next, antibiotic resistance was determined for all 387 Klebsiella isolates in the discovery set. Antibiotic testing was carried out according to the standard disk diffusion method as described in the Clinical and Laboratory Standards Institute (M100 Performance Standards for Antimicrobial Susceptibility Testing, 27th Edition, 2017). […] Since almost all Klebsiella isolates are known to be resistant to AMP and sensitive to IMI, TET is not used for treatment of urinary tract infections, and ESBL production is partially reflected in resistance to CTR, these antibiotics were not included for further analysis.
To aid in clinical decision-making and to translate clonotype information to treatment selection, Lookup Table 1 was generated. […] The information contained in Lookup Table 1 was obtained from urine specimens from patients with Klebsiella infections from several clinics within different regions of the United States. Indications of allowance or non-recommendation were determined based on a 20% resistance threshold to the indicated antibiotic; i.e., the antibiotic is recommended when more than 80% of the tested isolates within the indicated clonotype were susceptible to the indicated antibiotic, and was cautioned against when less than 80% of the isolates were susceptible to the antibiotic.

Structure (SMILES): C[C@@H]1O[C@@H]1P(=O)(O)O [FOS, fosfomycin]
- susceptibility, % (CT 000): 63%
- susceptibility, % (CT 001): 0%
- susceptibility, % (CT 010): 33%
- susceptibility, % (CT 011): 9%
- susceptibility, % (CT 031): 33%
- susceptibility, % (CT 040): 25%
- susceptibility, % (CT 050): 29%
- susceptibility, % (CT 051): 41%
- susceptibility, % (CT 071): 80%
- susceptibility, % (CT 100): 71%
- susceptibility, % (CT 110): 0%
- susceptibility, % (CT 111): 30%
- susceptibility, % (CT 130): 29%
- susceptibility, % (CT 131): 36%
- susceptibility, % (CT 141): 0%
- susceptibility, % (CT 150): 42%
- susceptibility, % (CT 151): 43%
- susceptibility, % (CT 160): 0%
- susceptibility, % (CT 170): 39%
- susceptibility, % (CT 171): 22%
- susceptibility, % (CT 200): 43%
- susceptibility, % (CT 201): 26%
- susceptibility, % (CT 210): 45%
- susceptibility, % (CT 211): 43%
- susceptibility, % (CT 230): 100%
- susceptibility, % (CT 231): 100%
- susceptibility, % (CT 240): 100%
- susceptibility, % (CT 241): 0%
- susceptibility, % (CT 250): 55%
- susceptibility, % (CT 251): 40%
- susceptibility, % (CT 271): 38%
- susceptibility, % (CT 300): 0%
- susceptibility, % (CT 301): 24%
- susceptibility, % (CT 310): 33%
- susceptibility, % (CT 311): 35%
- susceptibility, % (CT 330): 40%
- susceptibility, % (CT 331): 32%
- susceptibility, % (CT 350): 44%
- susceptibility, % (CT 351): 35%
- susceptibility, % (CT 370): 25%
- susceptibility, % (CT 371): 50%
- susceptibility, % (CT 411): 50%
- susceptibility, % (CT 450): 33%
- susceptibility, % (CT 451): 33%
- susceptibility, % (CT 510): 50%
- susceptibility, % (CT 511): 100%
- susceptibility, % (CT 530): 14%
- susceptibility, % (CT 531): 33%
- susceptibility, % (CT 550): 33%
- susceptibility, % (CT 551): 36%
- susceptibility, % (CT 570): 50%
- susceptibility, % (CT 571): 25%
- susceptibility, % (CT 611): 33%
- susceptibility, % (CT 630): 0%
- susceptibility, % (CT 650): 37%
- susceptibility, % (CT 651): 24%
- susceptibility, % (CT 670): 0%
- susceptibility, % (CT 710): 33%
- susceptibility, % (CT 730): 21%
- susceptibility, % (CT 731): 43%
- susceptibility, % (CT 750): 60%
- susceptibility, % (CT 751): 17%
- susceptibility, % (CT 771): 36%
- susceptibility, % (CT Any Klebsiella spp.): 41%

Structure (SMILES): C[C@@H](O)[C@H]1C(=O)N2C(C(=O)O)=C(SCCN=CN)C[C@H]12 [IMI, imipenem]
- susceptibility, % (CT 000): 100%
- susceptibility, % (CT 001): 100%
- susceptibility, % (CT 010): 100%
- susceptibility, % (CT 011): 100%
- susceptibility, % (CT 031): 67%
- susceptibility, % (CT 040): 75%
- susceptibility, % (CT 050): 100%
- susceptibility, % (CT 051): 100%
- susceptibility, % (CT 071): 100%
- susceptibility, % (CT 100): 100%
- susceptibility, % (CT 110): 100%
- susceptibility, % (CT 111): 100%
- susceptibility, % (CT 130): 100%
- susceptibility, % (CT 131): 98%
- susceptibility, % (CT 141): 100%
- susceptibility, % (CT 150): 99%
- susceptibility, % (CT 151): 100%
- susceptibility, % (CT 160): 100%
- susceptibility, % (CT 170): 96%
- susceptibility, % (CT 171): 97%
- susceptibility, % (CT 200): 100%
- susceptibility, % (CT 201): 100%
- susceptibility, % (CT 210): 100%
- susceptibility, % (CT 211): 100%
- susceptibility, % (CT 230): 100%
- susceptibility, % (CT 231): 100%
- susceptibility, % (CT 240): 100%
- susceptibility, % (CT 241): 100%
- susceptibility, % (CT 250): 100%
- susceptibility, % (CT 251): 100%
- susceptibility, % (CT 271): 100%
- susceptibility, % (CT 300): 100%
- susceptibility, % (CT 301): 100%
- susceptibility, % (CT 310): 100%
- susceptibility, % (CT 311): 100%
- susceptibility, % (CT 330): 100%
- susceptibility, % (CT 331): 100%
- susceptibility, % (CT 350): 100%
- susceptibility, % (CT 351): 100%
- susceptibility, % (CT 370): 100%
- susceptibility, % (CT 371): 100%
- susceptibility, % (CT 411): 100%
- susceptibility, % (CT 450): 100%
- susceptibility, % (CT 451): 100%
- susceptibility, % (CT 510): 100%
- susceptibility, % (CT 511): 100%
- susceptibility, % (CT 530): 100%
- susceptibility, % (CT 531): 100%
- susceptibility, % (CT 550): 98%
- susceptibility, % (CT 551): 75%
- susceptibility, % (CT 570): 100%
- susceptibility, % (CT 571): 100%
- susceptibility, % (CT 611): 100%
- susceptibility, % (CT 630): 100%
- susceptibility, % (CT 650): 100%
- susceptibility, % (CT 651): 100%
- susceptibility, % (CT 670): 100%
- susceptibility, % (CT 710): 100%
- susceptibility, % (CT 730): 98%
- susceptibility, % (CT 731): 100%
- susceptibility, % (CT 750): 100%
- susceptibility, % (CT 751): 100%
- susceptibility, % (CT 771): 100%
- susceptibility, % (CT Any Klebsiella spp.): 99%
